How the values were obtained:
B16 = test: Inhibition of proliferation on B16-BL6 melanoma cells at 100 uM; type: functional; details: Mus musculus
[1] = Plasma concentration in mice after 4 hours of ip administration; type: ADME, organism-based; details: mouse
Mus musculus = test: Inhibition of lung metastasis in C57 mice injected with B16-BL6 melanoma cells at 30 mg/kg, ip; type: functional; details: route intraperitoneal
[2] = Plasma concentration in mice after 1 hour of ip administration; type: ADME, organism-based; details: mouse

O=C(Nc1ccc(-c2nc3ccccc3[nH]2)cc1)Nc1ccc(-c2nc3ccccc3[nH]2)cc1
inhibition at 100 µM (B16): < 50% | concentration at 4 h [1]: 23 µM | inhibition in vivo at 30 mg/kg (Mus musculus): 50% | concentration at 1 h [2]: 31 µM
